Measurements: patent US9951110B2, “Neuropeptides useful as insecticides” (THE STATE OF ISRAEL, MINISTRY OF AGRICULTURE & RURAL …, priority 2013, dated 2018)
Square brackets hold non-standard residues; d marks the D form. Ends that are not written are not given here.

Tests used:
[1] = tested on: Heliothis peltigera female moths; experiment: Topical application of agonistic peptides: stimulation of sex pheromone biosynthesis (solvent effect on penetrability); type: in vivo
Experimental: FIG. 6. is a graph showing the effect of a topically applied peptide (Peptide 12 in Table 1) on stimulation of sex pheromone biosynthesis in Heliothis peltigera female moths. • The peptide was tested at a concentration of 300 pmol and was applied in DDW, DMSO and IIS for different times (ranging from 0.5 to 7 h). • Statistical analysis compared pheromone content in the presence of the peptide in a given solvent (DDW, DMSO or IIS) at different time points (indicated by small black letters) and between solvents at the same time point (indicated by capital light grey letters). […] FIG. 7A and FIG. 7B are graphs showing the dose-response of a topically applied peptide [Peptide 12 (7A) and Peptide 11 (7B)] on stimulation of sex pheromone biosynthesis in Heliothis peltigera female moths. The peptide was tested at the indicated concentrations and was applied in DDW, IIS and DMSO for 3 h. • Statistical analysis compared pheromone content in the presence of the peptide in a given solvent (DDW, DMSO or IIS) at different concentrations (indicated by black letters) and between solvents at the same concentration (indicated by capital light grey letters). […] The tested peptides are applied onto the insect (e.g. moths) at scotophase (when pheromone is naturally synthesized) in a given solvent for the indicated times. Examination of the effect of carrier solvent on penetrability and activity was tested as a function of time and concentration with peptides 11 and 12 (see Table 1) which are agonistic peptides, i.e. stimulate sex pheromone production in female moths.

[2] = tested on: Heliothis peltigera female moths; experiment: Environmental (outdoor storage) stability, read out as sex pheromone production after injection; type: physicochemical; conditions: for stability: pheromone-stimulating activity after storage vs peptide stored at -80° C.: direct sunlight, about 31° C.; for stability in the course of storage: 4 weeks
Experimental: FIG. 9. is a graph showing the stability of Peptide 12 in a powder form under different storage conditions. • The stability was evaluated by determining sex pheromone production in Heliothis peltigera females exposed to said peptide. • The storage conditions are: (i) exposure to direct sunlight and an average temperature of about 31° C. for 1 week (“outdoor 1 week”); (ii) room temperature (RT); and (iii) −80° C. • Sex pheromone content is expressed as a percentage of the pheromone content obtained by injection of a peptide stored at −80° C. (defined as 100%). Statistical analysis compared pheromone content generated by injection of a peptide stored at room temperature (RT) for 1 week or a peptide kept for 1 week outdoors with that of the control (a peptide stored at −80° C.). […] FIG. 10A and FIG. 10B are graphs showing the stability of Peptide 12 dissolved in DDW or ITS at a concentration of 1 nmol (10A) or 100 pmol (10B) under different storage conditions. • The stability was evaluated by determining sex pheromone production in Heliothis peltigera females exposed to said peptide. • The storage conditions are: (i) exposure to direct sunlight and an average temperature of about 31° C. for 1 week (“outdoor 1 week”); and (ii) −80° C. • Sex pheromone content is expressed as a percentage of the pheromone content obtained by injection of a peptide stored as a dry powder at −80° C. (defined as 100%). Statistical analysis compared the pheromone content generated by the different treatments with that of the control (a peptide stored at −80° C.). […] FIG. 11A and FIG. 11B are graphs showing the stability of Peptide 12 dissolved in DDW (A) or IIS (B) at a concentration of 1 nmol, and exposed to direct sunlight and temperatures in the range of 27° C. to 31° C. for 1-4 weeks or by a peptide stored at 4° C. for 1-4 weeks. • The stability was evaluated by determining sex pheromone production in Heliothis peltigera females exposed to said peptide. • Activity is expressed as a percentage of that obtained by Peptide 12 stored at −80° C. (defined as 100%, not shown in the figures). • Statistical analysis compared activity at the same storage time at 4° C. and outdoor, and as a function of time within the same treatment (outdoor or 4° C.) as a function of storage time (capital letters). […] This assay is used to test the agonistic properties of the tested peptides (in adult females), and to determine the peptides melanotropic agonistic or antagonistic properties (in larvae). It was also used to determine the activity of peptides that were stored outdoors for different amounts of time. In order to evaluate the environmental stability of the peptides, peptide 12 (in Table 1) was tested. Stability was monitored by exposing a tube containing the peptide, either in the form of a dry powder or in solution made up in either DDW or IIS at a concentration of 100 pmol or 1 nmol, to direct sun light and a temperature range of 27 to 31° C. (“outdoor”). […] Similar results were obtained at a lower dose of the peptide, of 100 pmol (FIG. 10B). The peptide was also tested for stability for 4 weeks when dissolved in either DDW or IIS, at a concentration of 1 nmol, under the same conditions as above at a temperature range of 27° C. to 31° C.

[3] = tested on: Spodoptera littoralis larvae; experiment: Melanotropic inhibitory activity: injection with a stimulator (PBAN, PT, LPK, DH); type: in vivo; conditions: 100 pm
Excerpt: FIG. 12. is a graph showing the melanotropic inhibitory activity of the peptides of the invention against different stimulators of the PK/PBAN family: PBAN, PT (pheromonotropin), LPK (leucopyrokinin), DH (diapause hormone). • Degree of cuticular melanization is expressed as a percentage of the melanization obtained by injection the elicitor itself (PBAN, PT, LPK or DH) in the absence of the tested peptide (not shown). Statistical analysis compared the degree of melanization in the presence and absence of the tested peptide with any given elicitor. An asterisk indicates a significant difference between the degree of melanization obtained in the presence of the peptide. This assay is used to test the agonistic properties of the tested peptides (in adult females), and to determine the peptides melanotropic agonistic or antagonistic properties (in larvae). It was also used to determine the activity of peptides that were stored outdoors for different amounts of time. The peptides are injected into either adult female insects (e.g. moths) at photophase (when pheromone is not synthesized naturally, but the insect has the ability to produce pheromone upon stimulation with a agonist) or into 5th instar larvae. Agonistic properties were tested by injection of the peptides alone; antagonistic properties were determined by injection of the peptide together with a stimulator. The ability of the peptides to inhibit cuticular melanin synthesis was tested in Spodoptera littoralis larvae. Inhibitory activity was tested by injecting the peptides to Spodoptera littoralis larvae together with a given stimulator: PBAN, PT, LPK and DH. Inhibition is expressed as 100 minus the ratio in percentage (%) between the extents of cuticular melanization obtain in the presence and absence of the tested peptide (Table 2).

[4] = tested on: Heliothis peltigera female moths; experiment: Topical application: inhibition of sex pheromone biosynthesis (cuticular bioavailability); type: in vivo; conditions: topical
Experimental: FIG. 2. is a graph showing the effect of topically applied peptides on the inhibition of sex pheromone biosynthesis in Heliothis peltigera female moths. • The tested peptides are those listed in Table 1 (1-10, respectively). • Peptides were tested at a concentration of 10 pmol and were applied in IIS (0.5% ethanol, 0.05% Tween-80 in DDW), and DDW for 1 h. • Sex pheromone content is expressed as a percentage of the endogenous pheromone content obtained using control untreated moths (defined as 100%). Statistical analysis compared pheromone content in the presence of each peptide with that obtained with the corresponding solvents themselves (indicated by an asterisk).
FIG. 3A and FIG. 3B are graphs showing the dose response of Ac-A-dPhe-4 (3A) or Ac-A-dPhe-6 (3B) on inhibition of sex pheromone biosynthesis in Heliothis peltigera female moths. Peptides were applied in DDW for 1 h. • Sex pheromone content is expressed as a percentage of the endogenous pheromone content obtained using control untreated moths (defined as 100%). Statistical analysis compared pheromone content in the presence of each peptide at the indicated concentrations with that obtained with the solvent itself (indicated by an asterisk). A similar statistical analysis was also made against the pheromone content of untreated moths (indicated by #). […] Differences in the potency of the peptides at the indicated concentrations are depicted by letters.
FIG. 4. is a graph showing the time response of 1 nmol Ac-A-dPhe-4 and Ac-A-dPhe-6 (applied in DDW) on inhibition of sex pheromone biosynthesis in Heliothis peltigera female moths. • Sex pheromone content is expressed as a percentage of the endogenous pheromone content obtained using control untreated moths (defined as 100%). Statistical analysis compared pheromone content in the presence of each peptide at the indicated times with that obtained with the solvent itself at the same time point (indicated by an asterisk). […] Differences in the potency of the peptides at the indicated time points are depicted by letters. (Ac-A-dPhe-4: small letters; Ac-A-dPhe-6: capital letters).
FIG. 5A to FIG. 5C are graphs showing the effect of topically applied peptides on inhibition of sex pheromone biosynthesis in Heliothis peltigera female moths. • The tested peptides are those listed in Table 1 (1-6, respectively). Peptides were tested at a concentration of 1000 pmol (5A), 300 pmol (5B) or 100 pmol (5C) and were applied in DDW, DMSO and IIS for 7h. • Sex pheromone content is expressed as a percentage of the endogenous pheromone content obtained using control untreated moths (defined as 100%). Statistical analysis compared pheromone content in the presence of each peptide in a given solvent (DDW, DMSO or ITS) with that obtained with the solvents themselves (indicated by an asterisk).
a) Topical Application (TA)
This assay is used to determine cuticular penetrability.
The tested peptides are applied onto the insect (e.g. moths) at scotophase (when pheromone is naturally synthesized) in a given solvent for the indicated times.
Antagonistic activity was tested at a concentration of 10 pmol and the peptides were topically applied in two solvents: DDW and IIS (FIG. 2). […] Ac-A-dPhe-6 was the second best in IIS inhibiting pheromone biosynthesis by 74%.
Only minor differences in activity is observed as a function of a dose (with the exception of Ac-A-dPhe-4 at 1000 pmol, which inhibited pheromone production to a lesser extent of about 50%).
All experiments were carried out at the scotophase and the peptides were applied one hour before pheromone glands were excised (+5) and tested for pheromone content (at the 6th hour of the scotophase when the pheromone content is at its highest level). The high inhibition obtained under the tested conditions, indicates the extremely fast and high penetrability and bioactivity of the peptides of the invention. […]

## Tyr-Phe-Trp-Pro-Arg-Leu-amide (YFWPRL-NH2) [Peptide 11, agonistic peptide lacking a dPhe residue, tested for bioavailability]
[1]; 3 h, in DDW and IIS
  stimulation of sex pheromone biosynthesis: barely any activity
[1]; 3 h, in DMSO
  stimulation of sex pheromone biosynthesis: very active

## Acetyl-Tyr-Phe-Trp-Pro-Arg-Leu-amide (Ac-YFWPRL-NH2) [Peptide 12, agonistic peptide lacking a dPhe residue, tested for bioavailability and environmental stability]
[1]; 300 pmol, DDW, DMSO and IIS, 0.5 to 7 h
  stimulation of sex pheromone biosynthesis: effect of carrier on bioavailability: IIS has been found to be the best carrier
[1]; 3 h, DDW, IIS, DMSO
  stimulation of sex pheromone biosynthesis, dose response by carrier: higher activity in IIS compared to DDW or DMSO
[2]; dissolved in DDW or IIS, 100 pmol, 1 week
  stability: pheromone-stimulating activity after storage vs peptide stored at -80° C.: no significant difference
[2]; dissolved in DDW or IIS, 1 nmol, 1-4 weeks
  activity of peptide kept outdoor vs at 4° C. at the same storage time: No differences
[2]; dissolved in DDW or IIS, 1 nmol, 1 week
  stability: pheromone-stimulating activity after storage vs peptide stored at -80° C.: no significant difference
[2]; dissolved in DDW, 1 nmol, outdoor 27° C. to 31° C. or 4° C.
  stability in the course of storage: the activity dropped in the course of storage
[2]; dissolved in IIS, 1 nmol, outdoor 27° C. to 31° C.
  stability in the course of storage: much more stable
[2]; dry powder, 1 week, or room temperature
  stability: pheromone-stimulating activity after storage vs peptide stored at -80° C.: no significant difference

## Arg-Tyr-Phe-[dPhe]-Pro-Arg-Leu-amide (RYF[dF]PRL-NH2; N-terminus assumed; SMILES CC(C)C[C@H](NC(=O)[C@H](CCCNC(=N)N)NC(=O)[C@@H]1CCCN1C(=O)[C@@H](Cc1ccccc1)NC(=O)[C@H](Cc1ccccc1)NC(=O)[C@H](Cc1ccc(O)cc1)NC(=O)[C@@H](N)CCCNC(=N)N)C(N)=O) [dPhe-4]
[3]; injected with DH (diapause hormone)
  Melanotropic inhibitory activity, stimulator DH: 33%
[3]; injected with LPK (leucopyrokinin)
  Melanotropic inhibitory activity, stimulator LPK: 10%
[3]; injected with PBAN, inhibition = 100 minus % melanization with vs without peptide
  Melanotropic inhibitory activity, stimulator PBAN: 18%
[3]; injected with PT (pheromonotropin)
  Melanotropic inhibitory activity, stimulator PT: 59%
[4]; 10 pmol, in IIS, 1 h
  lowering of pheromone content compared to the solvent: failed to lower pheromone content
[4]; 300 pmol, 7 h, DDW, IIS, DMSO
  activity as a function of carrier: lower activity in DDW and IIS compared to DMSO
